Patent US10369138B2, “Monobactam organic compounds for the treatment of bacterial infections” (Novartis AG, priority 2014, dated 2019)
Values after ≈ are worked out from the molar mass of the structure shown.

What was measured:
[1] = test system: E. coli strain 25922; test: MIC by broth microdilution, E. coli strain 25922; format: cell-based; details: Escherichia coli, 25922, E. coli strain 25922; read-out: Ec 25922 (MIC)
Experimental: (§1) Bacterial isolates were cultivated from −70° C. frozen stocks by two consecutive overnight passages at 35° C. in ambient air on 5% blood agar (Remel, Lenexa, Kans.). Quality control and P. aeruginosa ATCC 27853) is from the American Type Culture Collection (ATCC; Rockville, Md.) and PAO1 was received from Dr. K. Poole.
Minimal Inhibitory Concentrations (MICs) were determined by the broth microdilution method in accordance with Clinical and Laboratories Institute (CLSI) guidelines. In brief, fresh overnight bacterial cultures were suspended in sterile saline, and adjusted to a 0.5 McFarland turbidity standard. Bacterial suspensions were then diluted in cation adjusted Mueller-Hinton Broth (MHB II; BBL) to yield a final inoculum of approximately 5×10^5 colony-forming units (CFU)/mL. A master plate of antibiotics was prepared at a concentration equivalent to hundred-fold the highest desired final concentration in 100% dimethyl sulfoxide (DMSO). The master antibiotic plate was then diluted by serial twofold dilution with a multichannel pipette. The resulting dilution series of compounds were diluted 1:10 with sterile water leading to a 10% DMSO final concentration. A volume of 10 μL of the drug dilution series was transferred to 96-well assay plates. Assay plates were inoculated with 90 μL of bacterial suspensions and incubated at 35-37° C. for 20 hrs. The assay plates were read using a microtiter plate reader (Molecular Devices) at 600 nm as well as by visual observation with a reading mirror. The lowest concentration of the compound that prevented visible growth was recorded as the MIC. Performance of the assay was monitored by testing aztreonam against laboratory quality control strains in accordance with guidelines of the CLSI.

[2] = test system: E. coli containing KPC-2; test: MIC by broth microdilution, E. coli containing KPC-2 (Ec KPC2 Iso); format: cell-based; details: Escherichia coli, read-out: Ec KPC2 Iso (MIC), E. coli containing KPC-2 (carbapenemase from Klebsiella pneumoniae)
Experimental: as §1
Strain NB27273 (BW25113 pspB::Km^r) was obtained from the Keio transposon insertion collection. The strain has the pspB gene replaced by a kanamycin resistance marker (BW25113 pspB::Km^r). This strain was cured of the transposon in pspB via FLP recombinase using published methodology. The resulting strain, BW25113 pspB, was used as a host for multicopy vectors expressing key β-lactamases. Multicopy plasmids directing constitutive expression of β-lactamases were established as follows: Synthetic, codon optimized genes encoding E. coli KPC2 and SHV12 β-lactamases were made by DNA2.0 (Palo Alto, Calif.). Each of the synthetic fragments were designed to contain NotI and NcoI restriction sites at their termini, allowing ligation into a NotI/NcoI digested pET28a(+) derivative for protein expression. […] The codon optimized nucleotide sequences and relevant primer recognition information is shown below:
The PCR products were then digested with XhoI and EcoRI and ligated into similarly digested plasmid pAH63-pstS(BlaP). Plasmid pAH63-pstS(BlaP) is a derivative of plasmid pAH63 (J Bacteriol: 183(21): 6384-6393) made by cloning the TEM-1 (bla) promoter and signal peptide encoding region from plasmid pBAD (J Bacteriol. 1995 July 177(14):4121-30) into plasmid pAH63. This fragment was PCR amplified from pBAD using primer pair E192 (ttca[…]) (SEQ ID NO:13) and E194 ([…]) (SEQ ID NO:14), digested with PstI and BamHI and inserted into similarly digested plasmid pAH63. Therefore, expression of β-lactamases from pAH63-pstS(BlaP) based constructs is constitutive and the signal sequence is provided to direct these proteins to the periplasm. Plasmid pAH63 based vectors are used for insertion into the genome in single copy, however, to provide higher expression levels to allow more sensitive detection of the susceptibility of compounds to the β-lactamases, the expression inserts contained in these vectors were moved to the replicative multicopy vector pBAD-Kan (J Bacteriol. 1995 July 177(14):4121-30). To accomplish this, the inserts encompassing the β-lactamase genes, with the associated TEM promoter and signal sequences, were PCR amplified from their corresponding vectors using primer E269 (ccg[…]) (SEQ ID NO:15) and E202 (aatc[…]) (SEQ ID NO:16) for the KPC2 construct and E204 (aatc[…]) (SEQ ID NO:17) for the SHV12 construct. These fragments were then digested with XbaI and EcoRI, and each was inserted into pBAD18-kan that had been digested with the same enzymes to generate a pair of multicopy vectors expressing KPC2 and SHV12 respectively. These vectors were transformed into BW25113 pspB to generate strains NB27273-CDY0033 (expressing KPC2) and NB27273-CDY0030 (expressing SHV12). The pBAD18-kan vector also contains the TEM promoter region and signal sequence, (but lacks any intact β-lactamase genes) and was transformed into BW25113 pspB using standard protocols to generate the control strain NB27273-CDY0026. Expression of the β-lactamases was confirmed by verifying decreased susceptibility to example test antibiotics that are known substrates of KPC2 or SHV12. Susceptibility Testing
Minimal Inhibitory Concentrations (MICs) were determined by the broth microdilution method in accordance with Clinical and Laboratories Institute (CLSI) guidelines. In brief, fresh overnight bacterial cultures were suspended in sterile saline, and adjusted to a 0.5 McFarland turbidity standard. Bacterial suspensions were then diluted in cation adjusted Mueller-Hinton Broth (MHB II; BBL) to yield a final inoculum of approximately 5×10^5 colony-forming units (CFU)/mL. […]

For `CC(C)(O/N=C(\C(=O)N[C@@H]1C(=O)N(S(=O)(=O)O)[C@@H]1Cn1nccn1)c1csc(N)n1)C(=O)O` [Example 54, 2-(((Z)-(2-(((2R,3S)-2-((2H-1,2,3-triazol-2-yl)methyl)-4-oxo-1-sulfoazetidin-3-yl)amino)-1-(2-aminothiazol-4-yl)-2-oxoethylidene)amino)oxy)-2-methylpropanoic acid], which MIC [1] is on record?
Its MIC is 2 µg/mL (≈ 3.98 µM).

And the MIC [2]?
Its MIC is 1 µg/mL (≈ 1.99 µM).

How did the MIC [1] turn out when `CC(C)(O/N=C(\C(=O)N[C@@H]1C(=O)N(S(=O)(=O)O)[C@@H]1CN1C[C@@H](CN)OC1=O)c1csc(N)n1)C(=O)O` [Example 57, 2-(((Z)-(2-(((2R,3S)-2-(((R)-5-(aminomethyl)-2-oxooxazolidin-3-yl)methyl)-4-oxo-1-sulfoazetidin-3-yl)amino)-1-(2-aminothiazol-4-yl)-2-oxoethylidene)amino)oxy)-2-methylpropanoic acid] was run?
Its MIC is 0.5 µg/mL (≈ 0.91 µM).

What about the MIC [2] of the same molecule?
The MIC was 1 µg/mL (≈ 1.82 µM).

Which MIC [1] does the source give for `CC(C)(O/N=C(\C(=O)N[C@@H]1C(=O)N(S(=O)(=O)O)[C@@H]1Cn1ccnn1)c1csc(N)n1)C(=O)O` [Example 50, 2-(((Z)-(2-(((2R,3S)-2-((1H-1,2,3-triazol-1-yl)methyl)-4-oxo-1-sulfoazetidin-3-yl)amino)-1-(2-aminothiazol-4-yl)-2-oxoethylidene)amino)oxy)-2-methylpropanoic acid] here?
Its MIC is 2 µg/mL (≈ 3.98 µM).

What about the MIC [2] of the same molecule?
The MIC was 2.8 µg/mL (≈ 5.57 µM).

Which results are given for `CC(C)(O/N=C(\C(=O)N[C@@H]1C(=O)N(S(=O)(=O)O)[C@@H]1Cn1cnc(C(N)=O)n1)c1csc(N)n1)C(=O)O` [Example 74, 2-(((Z)-(1-(2-aminothiazol-4-yl)-2-(((2R,3S)-2-((3-carbamoyl-1H-1,2,4-triazol-1-yl)methyl)-4-oxo-1-sulfoazetidin-3-yl)amino)-2-oxoethylidene)amino)oxy)-2-methylpropanoic acid]?
MIC [1]: 8 µg/mL (≈ 14.7 µM); MIC [2]: 32 µg/mL (≈ 58.7 µM)

What does the source list for `N=C(NCCN)c1ccc(OC[C@H](O/N=C(\C(=O)N[C@@H]2C(=O)N(S(=O)(=O)O)[C@@H]2Cn2ncc(CN)n2)c2csc(N)n2)C(=O)O)cc1` [Example 66, (S)-3-(4-(N-(2-aminoethyl)carbamimidoyl)phenoxy)-2-(((Z)-(2-(((2R,3S)-2-((4-(aminomethyl)-2H-1,2,3-triazol-2-yl)methyl)-4-oxo-1-sulfoazetidin-3-yl)amino)-1-(2-aminothiazol-4-yl)-2-oxoethylidene)amino)oxy)propanoic acid]?
MIC [1]: 1 µg/mL (≈ 1.44 µM); MIC [2]: 2 µg/mL (≈ 2.88 µM)

How did the MIC [1] turn out when `NCCNC(=O)NCc1cnn(C[C@@H]2[C@H](NC(=O)/C(=N\OC3(C(=O)O)CC3)c3csc(N)n3)C(=O)N2S(=O)(=O)O)n1` [Example 135, 1-(((Z)-(2-(((2R,3S)-2-((4-((3-(2-aminoethyl)ureido)methyl)-2H-1,2,3-triazol-2-yl)methyl)-4-oxo-1-sulfoazetidin-3-yl)amino)-1-(2-aminothiazol-4-yl)-2-oxoethylidene)amino)oxy)cyclopropanecarboxylic acid] was run?
The MIC was 0.5 µg/mL (≈ 0.812 µM).

And the MIC [2]?
Its MIC is 0.5 µg/mL (≈ 0.812 µM).

`CC(C)(O/N=C(\C(=O)N[C@@H]1C(=O)N(S(=O)(=O)O)[C@@H]1CN1CCN(CCN)C1=O)c1csc(N)n1)C(=O)O` [Example 70, 2-(((Z)-(2-(((2R,3S)-2-((3-(2-aminoethyl)-2-oxoimidazolidin-1-yl)methyl)-4-oxo-1-sulfoazetidin-3-yl)amino)-1-(2-aminothiazol-4-yl)-2-oxoethylidene)amino)oxy)-2-methylpropanoic acid] was tested. Which MIC [1] did it give?
Its MIC is 8 µg/mL (≈ 14.2 µM).

What about the MIC [2] of the same molecule?
Its MIC is 8 µg/mL (≈ 14.2 µM).

For `NCCCNCc1cnn(C[C@@H]2[C@H](NC(=O)/C(=N\OC3(C(=O)O)CC3)c3csc(N)n3)C(=O)N2S(=O)(=O)O)n1` [Example 90, 1-(((Z)-(2-(((2R,3S)-2-((4-(((3-aminopropyl)amino)methyl)-2H-1,2,3-triazol-2-yl)methyl)-4-oxo-1-sulfoazetidin-3-yl)amino)-1-(2-aminothiazol-4-yl)-2-oxoethylidene)amino)oxy)cyclopropanecarboxylic acid], which MIC [1] is on record?
Its MIC is 0.25 µg/mL (≈ 0.426 µM).

And the MIC [2]?
Its MIC is 0.25 µg/mL (≈ 0.426 µM).

Which results are given for `C[N+](C)(C)CCCNCc1cnn(C[C@@H]2[C@H](NC(=O)/C(=N\OC3(C(=O)O)CC3)c3csc(N)n3)C(=O)N2S(=O)(=O)O)n1` [Example 123, 3-(((2-(((2R,3S)-3-((Z)-2-(2-aminothiazol-4-yl)-2-((1-carboxycyclopropoxy)imino)acetamido)-4-oxo-1-sulfoazetidin-2-yl)methyl)-2H-1,2,3-triazol-4-yl)methyl)amino)-N,N,N-trimethylpropan-1-aminium]?
MIC [1]: 1 µg/mL; MIC [2]: 0.5 µg/mL

How did the MIC [1] turn out when `N=C(NC1CCNCC1)c1ccc(OC[C@H](O/N=C(\C(=O)N[C@@H]2C(=O)N(S(=O)(=O)O)[C@@H]2Cn2cncn2)c2nsc(N)n2)C(=O)O)cc1` [Example 75, (S)-2-(((Z)-(2-(((2R,3S)-2-((1H-1,2,4-triazol-1-yl)methyl)-4-oxo-1-sulfoazetidin-3-yl)amino)-1-(5-amino-1,2,4-thiadiazol-3-yl)-2-oxoethylidene)amino)oxy)-3-(4-(N-(piperidin-4-yl)carbamimidoyl)phenoxy)propanoic acid] was run?
The MIC was 0.5 µg/mL (≈ 0.707 µM).

What about the MIC [2] of the same molecule?
The MIC was 0.5 µg/mL (≈ 0.707 µM).

For `N=C(N)NCCCNCc1cnn(C[C@@H]2[C@H](NC(=O)/C(=N\OC3(C(=O)O)CC3)c3csc(N)n3)C(=O)N2S(=O)(=O)O)n1` [Example 114, 1-(((Z)-(1-(2-aminothiazol-4-yl)-2-(((2R,3S)-2-((4-(((3-guanidinopropyl)amino)methyl)-2H-1,2,3-triazol-2-yl)methyl)-4-oxo-1-sulfoazetidin-3-yl)amino)-2-oxoethylidene)amino)oxy)cyclopropanecarboxylic acid], which MIC [1] is on record?
The MIC was 0.25 µg/mL (≈ 0.398 µM).

And the MIC [2]?
The MIC was no more than 0.06 µg/mL.

What does the source list for `Cc1nn(C[C@@H]2[C@H](NC(=O)/C(=N\OC3(C(=O)O)CC3)c3csc(N)n3)C(=O)N2S(=O)(=O)O)nc1CN` [Example 143, 1-(((Z)-(2-(((2R,3S)-2-((4-(aminomethyl)-5-methyl-2H-1,2,3-triazol-2-yl)methyl)-4-oxo-1-sulfoazetidin-3-yl)amino)-1-(2-aminothiazol-4-yl)-2-oxoethylidene)amino)oxy)cyclopropanecarboxylic acid]?
MIC [1]: 0.5 µg/mL (≈ 0.92 µM); MIC [2]: 0.25 µg/mL (≈ 0.46 µM)

With `NCCS(=O)(=O)Cc1cnn(C[C@@H]2[C@H](NC(=O)/C(=N\OC3(C(=O)O)CC3)c3csc(N)n3)C(=O)N2S(=O)(=O)O)n1` [Example 152, 1-(((Z)-(2-(((2R,3S)-2-((4-(((2-aminoethyl)sulfonyl)methyl)-2H-1,2,3-triazol-2-yl)methyl)-4-oxo-1-sulfoazetidin-3-yl)amino)-1-(2-aminothiazol-4-yl)-2-oxoethylidene)amino)oxy)cyclopropanecarboxylic acid] as the molecule, how does the MIC [1] read?
Its MIC is 0.5 µg/mL (≈ 0.804 µM).

What about the MIC [2] of the same molecule?
Its MIC is 0.5 µg/mL (≈ 0.804 µM).
